Usually pEC50 stands for the EC50 on a negative log10 scale, so that one unit is a factor of ten. Read a low pEC50 as a high EC50. A word on the pIC50: it is the negative decadic logarithm of the IC50, by convention in mol/L. Read a high pIC50 as a small IC50. By CC50 is commonly meant the concentration at which the toxic effect on the cells reaches its halfway point. Lower therefore signals harm at low concentration.

The results in this text go back to ChEMBL document CHEMBL1133377, “1-[2-(Diphenylmethoxy)ethyl]-2-methyl-5-nitroimidazole: a potent lead for the design of novel NNRTIs” (Bioorg Med Chem Lett, 2000).

pEC50, pIC50: −log10 of the molar value.

For one experiment, the system named is MT4. Nature of the experiment: Compound dose required to achieve protection of MT-4 cells from HIV-1 induced cytopathicity using MTT method. The note with it: Homo sapiens. It is filed as functional, cell-based. (In general: Protection from cytopathic effect is a common read-out in antiviral testing.)
Experiment [1] addresses Human immunodeficiency virus type 1 reverse transcriptase (Human immunodeficiency virus 1, UniProt Q72547). As to the kind of experiment: Compound dose required to inhibit HIV-1 reverse transcriptase enzyme(rRT) activity.
Experiment [2] in a line: Compound dose required to reduce viability of mock infected cells using MTT method. The experiment is classed as functional. (Tetrazolium dyes change colour on reduction, which living cells bring about.)
Experiment [3] is described as follows: Selectivity index is ratio of CC50 to that of EC50. The experiment is classed as functional.

For the compound `Cc1ccc(C(OCCn2c([N+](=O)[O-])cnc2C)c2ccccc2)cc1` (centres undefined), in the experiment with MT4, the pEC50 is 5.85. This compound gave a pIC50 in experiment [1] of 5.68. In experiment [2], this compound registered a CC50 of 86 µM. For the same compound, the S.I in experiment [3] was determined as 61.
For the compound `Clc1ccc(C(OCCn2ccnc2)c2ccccc2)c(Cl)c1` (centres undefined), the pEC50 with MT4 is under 4.51. For the same compound, it took 31 µM to reach half-maximal cytotoxicity in experiment [2] (CC50).
Regarding `Clc1ccc(C(OCCn2ccnc2)c2ccc(Cl)cc2Cl)cc1` (centres undefined), the negative-log EC50 (pEC50) with MT4 was under 4.59. This compound also returned a half-maximal cytotoxic concentration (CC50) in experiment [2] of 26 µM.
The compound `Cc1ncc([N+](=O)[O-])n1CCOC(c1ccccc1)c1ccc(Cl)cc1Cl` (centres undefined) showed a pEC50 in the experiment with MT4 of 5.82. For the same compound, the negative-log IC50 (pIC50) in experiment [1] is 5.85. It took 54 µM to reach half-maximal cytotoxicity in experiment [2] (CC50). In experiment [3], the S.I amounted to 36.
In turn, `c1ccc(C(OCCn2ccnc2)c2ccccc2)cc1` showed a negative logarithm of the EC50 (pEC50) in the experiment on MT4 of under 4.00. The half-maximal cytotoxic concentration (CC50) in experiment [2] was found to be 100 µM.
In experiment [2], `Cc1ccnc2c1NC(=O)c1cccnc1N2C1CC1` [NEVIRAPINE] returned a half-maximal cytotoxic concentration (CC50) of over 300 µM. For the same compound, the S.I in experiment [3] was over 1000.
On to `Cc1ncc([N+](=O)[O-])n1CCOC(c1ccccc1)c1ccccc1`, for which the pEC50 in the experiment with MT4 is 6.70. Besides, the pIC50 in experiment [1] was 7.30. In experiment [2], this compound showed a CC50 of over 200 µM. In experiment [3], the S.I was over 1000.
The corresponding values for `Cc1ncc([N+](=O)[O-])n1CCOC(c1ccccc1)c1ccc(F)cc1` (centres undefined) are 6.05, 5.64, over 200 µM and 222.
Regarding `Cc1ncc([N+](=O)[O-])n1CCOC(c1ccccc1)c1ccc(-c2ccccc2)cc1` (centres undefined), the pEC50 with MT4 was 4.77. The same compound came in with a CC50 in experiment [2] of over 200 µM. The S.I in experiment [3] came to 12.
The corresponding values for `Cc1ncc([N+](=O)[O-])n1CCOC(c1ccccc1)c1ccc(Cl)cc1` (centres undefined) are 4.90, over 200 µM and over 16.
On to `Cc1ncc([N+](=O)[O-])n1CCOC(c1ccccc1)c1ccc(C(C)(C)C)cc1` (centres undefined), for which the pEC50 in the experiment on MT4 was 5.40. The pIC50 in experiment [1] was 5.82. This compound yielded a CC50 in experiment [2] of 44 µM. Besides, in experiment [3], the S.I amounted to 11.
